# Experimental data published in patent US12617762B2, “Carboxy derivatives with antiinflamatory properties” (Sitryx Therapeutics Limited, priority 2019, dated 2026).
# Read-outs that look alike come from different tables or passages of the source.
# Experiments:
# [1] = Hepatocyte stability assay, mouse; assay type: in vitro ADME; details: mouse, hepatocytes; for hepatocyte CLint at 10 μM: Hepatocyte stability Clint; for half-life at 10 μM: Hepatocyte stability T½
# How it was run: (§1)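 Metabolic stability was measured as depletion of 10 μM compound in thawed hepatocytes (0.5×10^6 cells/mL, 37° C, up to 60 min). Intrinsic clearance came from the slope of log-transformed percentage remaining.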
# [2] = test system: IL-1β cytokine output from THP-1s; test: THP-1 AlphaLISA IL-1β cytokine inhibition assay; assay type: cell-based; details: for IC50: Homo sapiens; for IL-1β lowering, result in words: THP-1 IL-1β assay
# How it was run: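 IL-1β release by AlphaLISA, expressed as % inhibition against +/− LPS controls on each plate. Differentiation: PMA, 72 h. Sequence: 30 min compound pre-treatment, LPS 24 h, Nigericin 1 h before supernatant harvest, all at 37° C./5% CO2.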
# [3] = test system: NRF2 (nuclear factor erythroid 2-related factor 2); test: NRF2 +/-GSH activation assay (DiscoverX PathHunter NRF2 translocation kit, U2OS cells); assay type: cell-based; details: for NRF2 activation +GSH Emax / NRF2 activation −GSH Emax / −GSH Emax: normalised to DMF high control
# How it was run: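 Activation is expressed as percent of plate DMF (high) versus no-DMF (low) controls, from luminescence after 6 h compound exposure at 37 °C of U2OS PathHunter cells. The +GSH condition used compound pre-incubated 30 min in 6 mM working GSH; −GSH cells received compound directly.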
# [4] = Hepatocyte stability assay, human; assay type: in vitro ADME; details: human, hepatocytes; for hepatocyte CLint at 10 μM: Hepatocyte stability Clint; for half-life at 10 μM: Hepatocyte stability T½
# How it was run: as §1
# [5] = test system: IL-6 cytokine output from THP-1s; test: THP-1 AlphaLISA IL-6 cytokine inhibition assay; assay type: cell-based; details: Homo sapiens, LPS then nigericin
# How it was run: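 THP-1 cells differentiated with PMA for 72 h, then pre-incubated with compound 30 min, stimulated with LPS 24 h, then Nigericin 1 h, all at 37° C. Supernatant IL-6 measured by AlphaLISA. Percentage inhibition normalized to +/− LPS plate controls.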
# [6] = THP-1, differentiated THP-1 cells, LPS then nigericin
# [7] = +GSH, 30 minute compound-GSH pre-incubation, read-out: NRF2 activation +GSH EC50
# [8] = −GSH, U2OS PathHunter cells, 6 hours compound treatment, read-out: NRF2 activation −GSH EC50
# [9] = THP-1, differentiated THP-1 cells
# [10] = THP-1, Table 3, head to head comparison of exo vs endo double bond compounds
# [11] = −GSH, Table 5 exo vs endo comparison, read-out: −GSH EC50
# [12] = −GSH, Table 5 exo vs endo comparison
SMILES,hepatocyte CLint at 10 μM [1] [µL/min/1e6 cells],half-life at 10 μM [1] [min],"IC50 [2, 6] [µM]","IL-1β lowering, result in words [2]","EC50 [3, 7] [µM]",NRF2 activation +GSH Emax ([3]; +GSH) [%],"EC50 [3, 8] [µM]",NRF2 activation −GSH Emax ([3]; −GSH) [%],hepatocyte CLint at 10 μM [4] [µL/min/1e6 cells],half-life at 10 μM [4] [min],"IC50 [5, 9] [µM]","IC50 [2, 10] [µM]","EC50 [3, 11] [µM]","−GSH Emax [3, 12] [%]",IC50 ([5]; differentiated THP-1 cells) [µM]
"C=C(Cc1nc(C2(c3ccc(F)cc3)CC2)no1)C(=O)O [Example 44, 2-((3-(1-(4-fluorophenyl)cyclopropyl)-1,2,4-oxadiazol-5-yl)methyl)acrylic acid]",37,44,> 100,not effective,> 100,23,28.7,65,10,144,29.9,–,–,–,–
"C=C(Cc1nc(C2(c3ccc(Br)cc3)CC2)no1)C(=O)O [Example 50, 2-((3-(1-(4-bromophenyl)cyclopropyl)-1,2,4-oxadiazol-5-yl)methyl)acrylic acid]",146,9,4.5,–,39.2,88,35.9,150,25,53,20.3,4.5,35.9,150,–
"C=C(Cc1nc(Cc2ccc(OCCCC)cc2)no1)C(=O)O [Example 51, 2-((3-(4-butoxybenzyl)-1,2,4-oxadiazol-5-yl)methyl)acrylic acid]",278,5,53.4,–,6.7,181,4.6,269,24,55,5.3,–,–,–,–
"C=C(Cc1nc(C2(c3ccc(Cl)c(F)c3)CC2)no1)C(=O)O [Example 52, 2-((3-(1-(4-chloro-3-fluorophenyl)cyclopropyl)-1,2,4-oxadiazol-5-yl)methyl)acrylic acid]",134,10,19.4,–,> 100,40,15.2,78,24,55,25.5,–,–,–,–
"C=C(Cc1nc(CCCCCCCCC)no1)C(=O)O [Example 53, 2-((3-nonyl-1,2,4-oxadiazol-5-yl)methyl)acrylic acid]",> 460,< 3,1.8,–,1.8,71,1.8,178,329,4,2.6,–,–,–,–
"C=C(Cc1nc(C(C)CCCCCC(F)(F)F)no1)C(=O)O (stereo not drawn) [Example 54, 2-((3-(8,8,8-trifluorooctan-2-yl)-1,2,4-oxadiazol-5-yl)methyl)acrylic acid]",13,102,> 100,not effective,42.4,50,44.6,115,5,268,19.1,–,–,–,–
"C=C(Cc1nc(CCCCCCCCCCC)no1)C(=O)O [Example 56, 2-((3-undecyl-1,2,4-oxadiazol-5-yl)methyl)acrylic acid]",> 460,< 3,3.4,–,3.1,110,2.8,175,> 460,< 3,3.3,–,–,–,–
"C=C(Cc1ncc(CCCCCCCC)o1)C(=O)O [Example 59, 2-((5-octyloxazol-2-yl)methyl)acrylic acid]",> 460,< 3,6.9,–,5.4,136,3.9,213,> 460,< 3,–,–,–,–,7.2
"C=C(Cc1nc(CCCCCCCCC(F)(F)F)no1)C(=O)O [Example 60, 2-((3-(9,9,9-trifluorononyl)-1,2,4-oxadiazol-5-yl)methyl)acrylic acid]",257,6,11.2,–,9,110,8.4,195,137,11,6,–,–,–,–
"C=C(Cc1nc(-c2ccc(OCCCC)cc2)no1)C(=O)O [Example 61, 2-((3-(4-butoxyphenyl)-1,2,4-oxadiazol-5-yl)methyl)acrylic acid]",301,4,13.9,–,4.9,124,3.2,198,52,29,3.1,13.9,3.2,198,–
"C=C(Cc1nc(C2CC3(C2)CC2(CCC2)C3)no1)C(=O)O [Example 62, 2-((3-(dispiro[3.1.3^6.1^4]decan-2-yl)-1,2,4-oxadiazol-5-yl)methyl)acrylic acid]",119,10,17.9,–,27.4,149,20,229,57,26,21.5,–,–,–,–
"C=C(Cc1nc(Cc2ccc(CCC)cc2)no1)C(=O)O [Example 70, 2-((3-(4-propylbenzyl)-1,2,4-oxadiazol-5-yl)methyl)acrylic acid]",58,26,25.3,–,15.6,147,13.4,188,13,117,9.4,–,–,–,–
"C=C(Cc1nc(-c2ccc(C3(CCC)CC3)cc2)no1)C(=O)O [Example 72, 2-((3-(4-(1-propylcyclopropyl)phenyl)-1,2,4-oxadiazol-5-yl)methyl)acrylic acid]",28,43,7,–,19.5,151,14.6,189,69,27,4.4,–,–,–,–
